Measured values taken from patent US20260042764A1, “COMPOSITIONS AND METHODS FOR INHIBITION OF KRAS” (TheRas, Inc., priority 2022, published 2026).

Columns and labels:
[1] = molecular target: T1, Avi-KRAS G12D (1-169) GppNHp/RAF1 RBD-3xFLAG (52-151) (Homo sapiens, UniProt P01116, G12D); assay: Raf1-KRAS G12D-GppNHP disruption HTRF assay (Biological Example 1); assay type: binding
T1 construct: Avi-KRAS G12D (1-169)
Summary of the method: (§1)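 Protein mix, 1 h RT, 700 rpm; reagent mix, 1 h RT, 700 rpm; HTRF read. Buffer Tris pH 7.5/NaCl/MgCl2/BSA/Tween, 10% DMSO. Output % activity, DMSO = 100%.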

[2] = molecular target: T2, Avi-KRAS G12R (1-169) GppNHp/RAF1 RBD-3xFLAG (52-151) (Homo sapiens, UniProt P01116, G12R); assay: Raf1-KRAS G12R-GppNHP disruption HTRF assay (Biological Example 1); assay type: binding
T2 construct: Avi-KRAS G12R (1-169)
Summary of the method: as §1

[3] = molecular target: T3, Avi-KRAS G12V (1-169) GppNHp/RAF1 RBD-3xFLAG (52-151) (Homo sapiens, UniProt P01116, G12V); assay: Raf1-KRAS G12V-GppNHP disruption HTRF assay (Biological Example 1); assay type: binding
T3 construct: Avi-KRAS G12V (1-169)
Summary of the method: as §1

[4] = molecular target: T4, Avi-KRAS WT (1-169) GppNHp/RAF1 RBD-3xFLAG (52-151) (Homo sapiens, UniProt P01116); assay: Raf1-KRAS WT-GppNHP disruption HTRF assay (Biological Example 1); assay type: binding
T4 construct: Avi-KRAS WT (1-169)
Summary of the method: as §1

GP2d cells (KRAS G12D) = assay: Cell-based pERK HTRF assay in GP2d cell (Biological Example 2); conditions: GP2d (KRAS G12D) cells, pERK HTRF
Summary of the method: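 HTRF read-out of pERK (excitation 320 nm, emission 615 nm) after lysates sat 4–24 h at room temperature with Eu cryptate and d2 antibodies.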

SW620 cells (KRAS G12V) = assay: Cell-based pERK HTRF assay in SW620 cell (Biological Example 4); conditions: Homo sapiens, SW-620, SW620 (KRAS G12V) cells, pERK HTRF
Summary of the method: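 SW620 seeded in RPMI/10% FBS, next day dosed 4 h (top 1 μM, half-log, 9 pts, 0.25% DMSO). Lysed, pERK by d2/Eu cryptate HTRF, 4–24 h RT, 615 nm read.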

[5] = KRAS G12D, GppNHp-loaded, Table 11
[6] = KRAS G12R, GppNHp-loaded, Table 11
[7] = KRAS G12V, GppNHp-loaded, Table 11
[8] = KRAS WT, GppNHp-loaded, Table 11
[9] = KRAS G12D, GppNHp-loaded, class symbols
[10] = KRAS G12R, GppNHp-loaded, class symbols
[11] = KRAS G12V, GppNHp-loaded, class symbols
[12] = KRAS WT, GppNHp-loaded, class symbols

T3 sequence (P01116 1-169 isoform P01116-2 G12V): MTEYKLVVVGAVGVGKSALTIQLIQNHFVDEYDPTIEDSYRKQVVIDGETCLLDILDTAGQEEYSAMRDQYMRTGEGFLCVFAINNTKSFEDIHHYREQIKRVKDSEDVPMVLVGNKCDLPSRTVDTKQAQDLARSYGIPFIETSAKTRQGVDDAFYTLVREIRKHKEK
T2 sequence (P01116 1-169 isoform P01116-2 G12R): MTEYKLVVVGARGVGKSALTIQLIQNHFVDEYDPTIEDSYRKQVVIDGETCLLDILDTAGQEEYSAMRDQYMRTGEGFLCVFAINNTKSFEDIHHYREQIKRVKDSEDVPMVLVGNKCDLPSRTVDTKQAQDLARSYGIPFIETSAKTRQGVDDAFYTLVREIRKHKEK
T4 sequence (P01116 1-169 isoform P01116-2): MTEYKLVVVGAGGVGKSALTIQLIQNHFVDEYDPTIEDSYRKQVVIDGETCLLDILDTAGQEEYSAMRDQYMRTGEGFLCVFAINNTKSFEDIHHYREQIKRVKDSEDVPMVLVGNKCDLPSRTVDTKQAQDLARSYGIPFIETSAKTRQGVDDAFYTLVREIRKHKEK
T1 sequence (P01116 1-169 isoform P01116-2 G12D): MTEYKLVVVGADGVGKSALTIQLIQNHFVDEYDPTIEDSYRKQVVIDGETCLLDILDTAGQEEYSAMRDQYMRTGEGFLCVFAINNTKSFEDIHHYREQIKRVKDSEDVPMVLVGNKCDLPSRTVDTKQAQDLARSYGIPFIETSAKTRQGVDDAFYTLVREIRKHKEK

SMILES | IC50 [1, 5] | IC50 [2, 6] | IC50 [3, 7] | IC50 [4, 8] | IC50 (GP2d cells (KRAS G12D)) | IC50 (SW620 cells (KRAS G12V)) | IC50 ([1]; KRAS G12D-GppNHp/RAF1 RBD HTRF) | IC50 ([2]; KRAS G12R-GppNHp/RAF1 RBD HTRF) | IC50 ([3]; KRAS G12V-GppNHp/RAF1 RBD HTRF) | IC50 ([4]; KRAS WT-GppNHp/RAF1 RBD HTRF) | IC50 (GP2d cells (KRAS G12D); GP2d) | IC50 [1, 9] | IC50 [2, 10] | IC50 [3, 11] | IC50 [4, 12] | IC50 (GP2d cells (KRAS G12D); GP2d, class symbols) | IC50 (SW620 cells (KRAS G12V); class symbols)
CCN(C)c1nc(OC[C@@]23CCCN2C[C@H](F)C3)nc2c(F)c(-c3ccc(F)c4sc(N)c(C#N)c34)c(C(F)(F)F)cc12 (single isomer, unassigned) [Compound 196] | < 0.1 µM | < 0.1 µM | 0.1 to 1 µM | < 0.1 µM | < 0.1 µM | < 0.1 µM |  |  |  |  |  |  |  |  |  |  | 
CCN(c1nc(OC[C@@]23CCCN2C[C@H](F)C3)nc2c(F)c(-c3ccc(F)c4sc(N)c(C#N)c34)c(C(F)(F)F)cc12)[C@H]1C[C@H](C)N(C(=O)C(C)C)C1 [Compound 471] |  |  |  |  |  | < 0.1 µM | 0.1 to 1 µM | 0.1 to 1 µM | 0.1 to 1 µM | 0.1 to 1 µM | < 0.1 µM |  |  |  |  |  | 
N#Cc1c(N)sc2c(F)ccc(-c3c(C(F)(F)F)cc4c(N5CCCC6(C5)NC(=O)NC6=O)nc(OC[C@@]56CCCN5C[C@H](F)C6)nc4c3F)c12 (stereo partly drawn) [Compound 248] | 0.1 to 1 µM | 0.1 to 1 µM | 0.1 to 1 µM | 0.1 to 1 µM |  | 0.1 to 1 µM |  |  |  |  | 0.1 to 1 µM |  |  |  |  |  | 
N#Cc1c(N)sc2c(F)ccc(-c3c(C(F)(F)F)cc4c(N5CCN6C(=O)OCC6C5)nc(OCC56CCCN5CC(F)C6)nc4c3F)c12 (stereo not drawn) [Compound 428] |  |  |  |  |  | < 0.1 µM | 1 to 10 µM | 1 to 10 µM | 1 to 10 µM | 0.1 to 1 µM | < 0.1 µM |  |  |  |  |  | 
CCN(c1nc(OC[C@@]23CCCN2C[C@H](F)C3)nc2c(F)c(-c3ccc(F)c4sc(N)c(C#N)c34)c(C(F)(F)F)cc12)[C@H]1CCN(C(=O)OC2CCN(C(C)=O)C2)C1 (stereo partly drawn) [Compound 711] |  |  |  |  |  |  |  |  |  |  |  | < 0.1 µM | < 0.1 µM | < 0.1 µM | < 0.1 µM | < 0.1 µM | < 0.1 µM
CN(c1nc(OC[C@@]23CCCN2C[C@H](F)C3)nc2c(F)c(-c3ccc(F)c4sc(N)c(C#N)c34)c(C(F)(F)F)cc12)[C@@H]1CC[C@H](O)C1 [Compound 315] |  |  |  |  |  | < 0.1 µM | 0.1 to 1 µM | 1 to 10 µM | 1 to 10 µM | 0.1 to 1 µM | < 0.1 µM |  |  |  |  |  | 
CCC(=O)N1CC[C@@H](N(CC)c2nc(OC[C@@]34CCCN3C[C@H](F)C4)nc3c(F)c(-c4ccc(F)c5sc(N)c(C#N)c45)c(Cl)cc23)[C@@H]1C [Compound 417] |  |  |  |  |  | 0.1 to 1 µM | 0.1 to 1 µM | 1 to 10 µM | 1 to 10 µM | 0.1 to 1 µM | < 0.1 µM |  |  |  |  |  | 
CCN(c1nc(OC[C@@]23CCCN2C[C@H](F)C3)nc2c(F)c(-c3ccc(F)c4sc(N)c(C#N)c34)c(C(F)(F)F)cc12)[C@H]1CCN(C(=O)N2CCOCC2)C1 (atropisomer, axis not shown) [Compound 553] |  |  |  |  |  | < 0.1 µM | < 0.1 µM | < 0.1 µM | < 0.1 µM | < 0.1 µM | < 0.1 µM |  |  |  |  |  | 
CC(=O)N1C[C@@H]2CCCN(c3nc(OC[C@@]45CCCN4C[C@H](F)C5)nc4c(F)c(-c5ccc(F)c6sc(N)c(C#N)c56)c(C(F)(F)F)cc34)[C@@H]2C1 [Compound 451] |  |  |  |  |  | 0.1 to 1 µM | 0.1 to 1 µM | 1 to 10 µM | 1 to 10 µM | 0.1 to 1 µM | < 0.1 µM |  |  |  |  |  | 
CC#CC(=O)N1CC[C@@H](N(C)c2nc(OC[C@@]34CCCN3C[C@H](F)C4)nc3c(F)c(-c4ccc(F)c5sc(N)c(C#N)c45)c(C(F)(F)F)cc23)[C@H]1C [Compound 668] |  |  |  |  |  |  |  |  |  |  |  | 0.1 to 1 µM | 0.1 to 1 µM | 0.1 to 1 µM | 0.1 to 1 µM | < 0.1 µM | < 0.1 µM
CCN(c1nc(OC[C@@]23CCCN2C[C@H](F)C3)nc2c(F)c(-c3ccc(F)c4sc(N)c(C#N)c34)c(C(F)(F)F)cc12)[C@H]1C[C@H](COC)N(C(C)=O)C1 (atropisomer, axis not shown) [Compound 647] |  |  |  |  |  |  |  |  |  |  |  | < 0.1 µM | 0.1 to 1 µM | < 0.1 µM | 0.1 to 1 µM | < 0.1 µM | < 0.1 µM
CCN(c1nc(OC[C@@]23CCCN2C[C@H](F)C3)nc2c(F)c(-c3ccc(F)c4sc(N)c(C#N)c34)c(C(F)(F)F)cc12)[C@@H]1C[C@@H](C)N(C(=O)C2COC2)C1 (atropisomer, axis not shown) [Compound 629] |  |  |  |  |  |  |  |  |  |  |  | 0.1 to 1 µM | 0.1 to 1 µM | 0.1 to 1 µM | 0.1 to 1 µM | < 0.1 µM | < 0.1 µM
N#Cc1c(N)sc2c(F)ccc(-c3c(C(F)(F)F)cc4c(N5C6COCC5C6)nc(OC[C@@]56CCCN5C[C@H](F)C6)nc4c3F)c12 [Compound 202] | 0.1 to 1 µM | 0.1 to 1 µM | 0.1 to 1 µM | 0.1 to 1 µM |  | < 0.1 µM |  |  |  |  | < 0.1 µM |  |  |  |  |  | 
N#Cc1c(N)sc2c(F)ccc(-c3c(C(F)(F)F)cc4c(N5CCn6nncc6C5)nc(OC[C@@]56CCCN5C[C@H](F)C6)nc4c3F)c12 [Compound 243] | 0.1 to 1 µM | 0.1 to 1 µM | 0.1 to 1 µM | 0.1 to 1 µM |  | < 0.1 µM |  |  |  |  | < 0.1 µM |  |  |  |  |  | 
CCC(=O)N1C[C@@H](N(C)c2nc(OC[C@@]34CCCN3C[C@H](F)C4)nc3c(F)c(-c4ccc(F)c5sc(N)c(C#N)c45)c(C(F)(F)F)cc23)C[C@@H]1C [Compound 435] |  |  |  |  |  | < 0.1 µM | 0.1 to 1 µM | 0.1 to 1 µM | 0.1 to 1 µM | 0.1 to 1 µM | < 0.1 µM |  |  |  |  |  | 
CC(C)(O)[C@H]1CCN1c1nc(OC[C@@]23CCCN2C[C@H](F)C3)nc2c(F)c(-c3ccc(F)c4sc(N)c(C#N)c34)c(C(F)(F)F)cc12 [Compound 269] | 0.1 to 1 µM | 0.1 to 1 µM | 1 to 10 µM | 0.1 to 1 µM |  | 0.1 to 1 µM |  |  |  |  | < 0.1 µM |  |  |  |  |  | 
CCN(c1nc(OC[C@@]23CCCN2C[C@H](F)C3)nc2c(F)c(-c3ccc(F)c4sc(N)c(C#N)c34)c(C(F)(F)F)cc12)[C@H]1C[C@H](COC)N(C(=O)OC)C1 (atropisomer, axis not shown) [Compound 718] |  |  |  |  |  |  |  |  |  |  |  | < 0.1 µM | < 0.1 µM | < 0.1 µM | < 0.1 µM | < 0.1 µM | < 0.1 µM
CN(Cc1cccnc1)c1nc(OC[C@@]23CCCN2C[C@H](F)C3)nc2c(F)c(-c3ccc(F)c4sc(N)c(C#N)c34)c(C(F)(F)F)cc12 (atropisomer, axis not shown) [Compound 698] |  |  |  |  |  |  |  |  |  |  |  | 0.1 to 1 µM | 0.1 to 1 µM | 0.1 to 1 µM | 0.1 to 1 µM | < 0.1 µM | < 0.1 µM
CCN(c1nc(OC[C@@]23CCCN2C[C@H](F)C3)nc2c(F)c(-c3ccc(F)c4sc(N)c(C#N)c34)c(C(F)(F)F)cc12)[C@H]1CCN(C(=O)c2ncc(C)o2)C1 (atropisomer, axis not shown) [Compound 803] |  |  |  |  |  |  |  |  |  |  |  | < 0.1 µM | 0.1 to 1 µM | 0.1 to 1 µM | 0.1 to 1 µM | < 0.1 µM | < 0.1 µM
N#Cc1c(N)sc2c(F)ccc(-c3c(C(F)(F)F)cc4c(N5CCOC6CC65)nc(OC[C@@]56CCCN5C[C@H](F)C6)nc4c3F)c12 (stereo partly drawn) [Compound 148] | 0.1 to 1 µM | 0.1 to 1 µM | 0.1 to 1 µM | 0.1 to 1 µM |  | < 0.1 µM |  |  |  |  | < 0.1 µM |  |  |  |  |  | 
CN(c1nc(OC[C@@]23CCCN2C[C@H](F)C3)nc2c(F)c(-c3ccc(F)c4sc(N)c(C#N)c34)c(C(F)(F)F)cc12)[C@H]1CC[C@@H](O)C1 [Compound 309] |  |  |  |  |  | < 0.1 µM | 0.1 to 1 µM | 0.1 to 1 µM | 0.1 to 1 µM | 0.1 to 1 µM | < 0.1 µM |  |  |  |  |  | 
